Assays:
Type in all cases: cell-based
[1] = system: mitochondria in mouse keratinocytes; test: MTT assay after UV-B irradiation
Text: Mouse keratinocytes were pretreated with different concentrations of L-ergothioneine (unencapsulated) and then exposed to ultraviolet B radiation (UV-B), the shorter wavelength range of UV light present in sunlight which is responsible for significant photodamage to the skin. The light was generated by a FS20 sunlamp filtered with 2 sheets of Kodacel to eliminate light having a wavelength less than 280 nm.
(§1) This assay measures the specific activity of mitochondria to cleave the tetrazolium ring of the soluble dye MTT [3-(4,5-dimethylthiazol-2-yl)-2,5-diphenyl tetrazolium bromide] to form the insoluble blue formazan form. Living mitochondria metabolize MTT and make the blue formazan; dead mitochondria immediately stop forming blue formazan. In the MTT assay, mammalian cells are pretreated with L-ergothioneine and then treated with the mitochondrial damaging agent, in this example UV-B. MTT is then added and the formation of the blue dye is measured spectrophotometrically.
Table I provides the percent optical density of the formazan blue present relative to unexposed (control) mitochondria in cells for various UV-B levels, expressed as joules per square meter, and L-ergothioneine concentrations.
Mouse keratinocytes were pretreated with L-ergothioneine, both unencapsulated and encapsulated in liposomes (prepared as described below), at a final concentration of 12.5 μM. A control group was not treated with L-ergothioneine. The mouse keratinocytes were then exposed to UV-B as in Example I.
The L-ergothioneine was encapsulated into liposomes composed of phosphatidyl choline, phosphatidyl ethanolamine, oleic acid and cholesteryl hemisuccinate in a ratio of 2:2:1:5. To calculate the concentration of entrapped L-ergothioneine, the liposomes are extracted with chloroform, and the OD258 is measured in the aqueous layer. The concentration of L-ergothioneine is calculated using the ε258 of L-ergothioneine of 14,500. The final concentration of L-ergothioneine in the purified liposome was about 1.1 mM. […] Unencapsulated L-ergothioneine was adjusted to the same concentration by dilution.
The effect of the UV-B on the pretreated and untreated mitochondria was determined by the MTT assay as in Example 1.
Table 3 provides the percent optical density of the formazan blue present in each case relative to unexposed (control) mitochondria in cells for various UV-B levels.

[2] = system: mitochondria in mouse keratinocytes; test: MTT assay after alloxan exposure
Text: as §1
Mouse keratinocytes were pretreated with various concentrations of L-ergothioneine (unencapsulated) and then exposed to alloxan at various concentrations.
The effect of alloxan on the pretreated mitochondria was determined by the MTT assay as in Example 1.
Table 2 provides the percent optical densities of the formazan blue present relative to unexposed (control) mitochondria in cells for various alloxan concentrations, and L-ergothioneine concentrations.

[3] = system: mitochondrial membranes in mouse keratinocytes; test: JC-1 assay (fluorescence microscopy) after alloxan
Experimental: Mouse keratinocytes were pretreated with L-ergothioneine (unencapsulated) at 1 mM and then treated with 8 mM alloxan. One day after treatment with L-ergothioneine, the cells were treated for 10 minutes with JC-I and the cells examined by fluorescence microscopy.
The JC-1 assay makes use of the fluorescent dye JC-1 (5,5′, 6,6′-tetrachloro-1, 1′, 3,3′-tetrathylbenzimidazolecarbocyanine iodide) (Molecular Probes Inc., Eugene, OR). This dye immediately and specifically intercalates into mitochondrial membranes. In living, charged membranes the JC-1 dye is maintained in the membrane as a […], and fluoresces green. When the mitochondrial membrane is damaged, aggregation of the JC-1 dye into J-1 aggregates occurs and the fluorescence changes to orange. Orange coloration is then characteristic of mitochondrial membrane damage.

C[N+](C)(C)[C@@H](Cc1c[nH]c(=S)[nH]1)C(=O)[O-] [L-ergothioneine]
protection of mitochondria from UV-B damage ([1]; 12.5 μM, UV-B 100 and 500 J/m^2): significant but not complete protection
percent optical density of formazan blue relative to unexposed (control) mitochondria ([1]; 0.1 mM L-ergothioneine, UV-B 0 J/m^2): 100.0%
percent optical density of formazan blue relative to unexposed (control) mitochondria ([1]; 0.1 mM L-ergothioneine, UV-B 100 J/m^2): 95.7%
percent optical density of formazan blue relative to unexposed (control) mitochondria ([1]; 0.1 mM L-ergothioneine, UV-B 200 J/m^2): 97.0%
percent optical density of formazan blue relative to unexposed (control) mitochondria ([1]; 0.1 mM L-ergothioneine, UV-B 500 J/m^2): 91.0%
percent optical density of formazan blue relative to unexposed (control) mitochondria ([1]; 0.5 mM L-ergothioneine, UV-B 100 J/m^2): 97.2%
percent optical density of formazan blue relative to unexposed (control) mitochondria ([1]; 0.5 mM L-ergothioneine, UV-B 200 J/m^2): 99.4%
percent optical density of formazan blue relative to unexposed (control) mitochondria ([1]; 0.5 mM L-ergothioneine, UV-B 500 J/m^2): 90.8%
percent optical density of formazan blue relative to unexposed (control) mitochondria ([1]; 1 mM L-ergothioneine, UV-B 0 J/m^2): 100.0%
percent optical density of formazan blue relative to unexposed (control) mitochondria ([1]; 1 mM L-ergothioneine, UV-B 100 J/m^2): 97.1%
percent optical density of formazan blue relative to unexposed (control) mitochondria ([1]; 1 mM L-ergothioneine, UV-B 200 J/m^2): 103.9%
percent optical density of formazan blue relative to unexposed (control) mitochondria ([1]; 1 mM L-ergothioneine, UV-B 500 J/m^2): 96.0%
mitochondrial viability ([1]; UV-B 100 and 200 J/m^2, all three levels of L-ergothioneine (0.1, 0.5, 1 mM)): greater than 95%
protection of mitochondria ([1]; highest UV-B dose (500 J/m^2)): still protected the mitochondria
percent optical density of formazan blue relative to unexposed (control) mitochondria ([1]; unencapsulated, 12.5 μM, UV-B 0 J/m^2): 100.0%
percent optical density of formazan blue relative to unexposed (control) mitochondria ([1]; unencapsulated, 12.5 μM, UV-B 100 J/m^2): 89.9%
percent optical density of formazan blue relative to unexposed (control) mitochondria ([1]; unencapsulated, 12.5 μM, UV-B 500 J/m^2): 89.9%
concentration at which active (protection from UV-B) ([1]; unencapsulated, UV-B 100 and 500 J/m^2): ≤ 12.5 µM
percent optical density of formazan blue relative to unexposed (control) mitochondria ([2]; 0.1 mM L-ergothioneine, alloxan 0 mM): 100.0%
percent optical density of formazan blue relative to unexposed (control) mitochondria ([2]; 0.1 mM L-ergothioneine, alloxan 0.625 mM): 86.3%
percent optical density of formazan blue relative to unexposed (control) mitochondria ([2]; 0.1 mM L-ergothioneine, alloxan 1.25 mM): 80.8%
percent optical density of formazan blue relative to unexposed (control) mitochondria ([2]; 0.1 mM L-ergothioneine, alloxan 2.5 mM): 81.1%
percent optical density of formazan blue relative to unexposed (control) mitochondria ([2]; 0.1 mM L-ergothioneine, alloxan 5 mM): 73.3%
percent optical density of formazan blue relative to unexposed (control) mitochondria ([2]; 0.1 mM L-ergothioneine, alloxan 10 mM): 74.9%
percent optical density of formazan blue relative to unexposed (control) mitochondria ([2]; 0.1 mM L-ergothioneine, alloxan 20 mM): 79.1%
percent optical density of formazan blue relative to unexposed (control) mitochondria ([2]; 0.5 mM L-ergothioneine, alloxan 0 mM): 100.0%
percent optical density of formazan blue relative to unexposed (control) mitochondria ([2]; 0.5 mM L-ergothioneine, alloxan 0.625 mM): 88.3%
percent optical density of formazan blue relative to unexposed (control) mitochondria ([2]; 0.5 mM L-ergothioneine, alloxan 1.25 mM): 81.0%
percent optical density of formazan blue relative to unexposed (control) mitochondria ([2]; 0.5 mM L-ergothioneine, alloxan 2.5 mM): 81.0%
percent optical density of formazan blue relative to unexposed (control) mitochondria ([2]; 0.5 mM L-ergothioneine, alloxan 5 mM): 73.3%
percent optical density of formazan blue relative to unexposed (control) mitochondria ([2]; 0.5 mM L-ergothioneine, alloxan 10 mM): 74.1%
percent optical density of formazan blue relative to unexposed (control) mitochondria ([2]; 0.5 mM L-ergothioneine, alloxan 20 mM): 78.4%
percent optical density of formazan blue relative to unexposed (control) mitochondria ([2]; 0.5 mM L-ergothioneine, alloxan 40 mM): 72.3%
percent optical density of formazan blue relative to unexposed (control) mitochondria ([2]; 1 mM L-ergothioneine, alloxan 0 mM): 100.0%
percent optical density of formazan blue relative to unexposed (control) mitochondria ([2]; 1 mM L-ergothioneine, alloxan 0.625 mM): 91.2%
percent optical density of formazan blue relative to unexposed (control) mitochondria ([2]; 1 mM L-ergothioneine, alloxan 1.25 mM): 86.5%
percent optical density of formazan blue relative to unexposed (control) mitochondria ([2]; 1 mM L-ergothioneine, alloxan 2.5 mM): 82.9%
percent optical density of formazan blue relative to unexposed (control) mitochondria ([2]; 1 mM L-ergothioneine, alloxan 10 mM): 68.5%
percent optical density of formazan blue relative to unexposed (control) mitochondria ([2]; 1 mM L-ergothioneine, alloxan 20 mM): 72.7%
percent optical density of formazan blue relative to unexposed (control) mitochondria ([2]; 1 mM L-ergothioneine, alloxan 40 mM): 66.6%
protection from oxidative damage by alloxan ([2]; dose-responsive portion of the curve (alloxan up to 5 mM)): afforded protection from oxidative damage
JC-1 fluorescence colour (orange = mitochondrial membrane damage) ([3]; 1 mM L-ergothioneine alone, no alloxan): green fluorescence
JC-1 fluorescence colour (orange = mitochondrial membrane damage) ([3]; 1 mM L-ergothioneine pretreatment, then 8 mM alloxan): much less orange than cells treated with alloxani alone

From US6479533B1, “Methods and compositions for the protection of mitochondria” (priority 1997, dated 2002)
